Measured values as given in patent US11103548B2, “Treatment of endometriosis, angiogenesis and/or endometrial lesion growth” (priority 2013, dated 2021).
No end group written: not given here. *: point of attachment. FITC = O=C1OC2(c3ccc(O)cc3Oc3cc(O)ccc32)c2ccc(NC(=S)*)cc21

Assays:
fertility of the animals = assay: fertility by mating in humanized animal models of endometriosis after treatment; format: in vivo; conditions: mating after endometriosis is inhibited and treatment is stopped
Description: The ability of ST011 to inhibit endometriosis without effecting fertility can be confirmed in, for example, animal model of endometriosis. For these experiments, humanized animal models of endometriosis first can be treated with ST011 and once endometriosis is inhibited and treatment is stopped, fertility of the animals is tested by mating.

SNCG = biological target: T1, SNCG (Homo sapiens, UniProt O76070); assay: co-immunoprecipitation (co-IP) of peptide with SNCG in MCF7-SNCG cells; format: binding; conditions: FITC tagged peptide, 8 hour after treatment, IP with anti-SNCG antibody, western blot with anti-FITC antibody
T1 construct: expressed in transfected cells; host or cells: MCF7-SNCG cells
Description: In vivo binding of ST011 to SNCG was examined in co-immunoprecipitation (co-IP) experiments (See FIG. 1). MCF7-SNCG cells were treated with FITC tagged […] (TAT)-ST011 (SEQ ID NO: 10) (lane 1 of FIG. 1), or FITC tagged YGRKKRRQRRR (TAT) alone (SEQ ID NO: 11) (lane 2 of FIG. 1) or no treatment control (lane 3 of FIG. 1). 8 hour after treatment, cell lysates were prepared and IP with anti-SNCG antibody was conducted. The presence of TAT-ST011 in SNCG IP complexes obtained from different treated cells was detected by western blot using anti-FITC antibody. […] Thus, FIG. 1 provides further evidence that SNCG is capable of immunoprecipitating TAT-ST011.

CRL 7566 cells = assay: intracellular permeability by fluorescent microscopy; format: cell-based; conditions: 20 micro molar FITC tagged peptide, after 6 hours
Description: To further examine the utility of the ST011 peptide as a therapeutic tool against angiogenesis, endometriosis and/or endometrial lesion growth, this peptide was further examined to observe its intracellular permeability in endometrial cells. For these experiments, GYGRKKRRQRRR (TAT) tagged GNSALHVASQHG (ST011) (SEQ ID NO: 10) and a control peptide GYGRKKRRQRRR (TAT CTL; SEQ ID NO: 11) were chemically synthesized. Each peptide contained FITC on its N-terminal end. These peptides were dissolved in 2% DMSO in PBS (pH 7.3) and applied directly on the Petri dish containing model cells (CRL 7566 or HUVECs) at required concentrations. Active internalization of peptide was observed using fluorescent microscopy. Three independent experiments were performed with duplicates of each condition. Model cell line for endometriosis, CRL 7566 cells (FIG. 2) received 20 micro molar FITC tagged TAT-ST011. After 6 hours cells were examined under fluorescent microscope.

HUVECs [1] = assay: WST-1 proliferation assay; format: cell-based; conditions: 600 ng/mL to 2.5 ng/mL, 48 hours of treatment, PBS control
Description: Endothelial cells are an integral part of blood vessels and the proliferation of endothelial cells is extremely important for angiogenesis. Therefore, to assess the role of α-synuclein in endothelial cell proliferation, HUVECs were plated and treated with various concentrations of TATST011 peptide GNSALHVASQHG (SEQ ID NO: 2) ranging from 600 ng/mL to 2.5 ng/mL using PBS as a control. In order to measure the effect of TAT-ST011 peptide GNSALHVASQHG (SEQ ID NO: 2) on HUVEC proliferation a WST-1 proliferation assay was performed.
HUVECs and epithelial cells were trypsinized, suspended in cultured medium and counted. Approximately 10,000 cells per well were seeded onto a 96 well plate. After allowing 24 hours for attachment in 37° C., the cells were treated with either 600 ng/mL, 300 ng/mL, 150 ng/mL, 5 ng/mL or 2.5 ng/mL of TAT-P12 using phosphate buffer saline (PBS, (Sigma Chemical Co., St. Louis, Mo., USA) as a control. The drug was suspended in RPMI. The plates were incubated in 37° C. for 24 or 48 hours after which 10 μL of WST-1 (Roche, Laval, QC, Canada) was added to each well. The plate was then incubated in 37° C. for another 4 hours. The absorbance of the wells was measured at a wavelength of 490 nm or at 510 nm.

HUVECs [2] = assay: in vitro angiogenic tube formation on gel matrix; format: cell-based
Description: Next, effect of TAT-ST011 peptide GNSALHVASQHG (SEQ ID NO: 2) on angiogenesis and tube formation of HUVEC cell was evaluated.
Extracellular matrix gel solution (Cell biolabs inc, San Diego, Calif., USA) had been thawed overnight at 4° C. and approximately […] of ECM gel solution was added to each well of a 96 well plate. The plate was incubated at 37° C. for 1 hour. HUVECs were trypsinized from culture and approximately 20,000 cells were added per well to the ECM containing 96 well plate. Each well was treated with […] of TAT-P12 at a concentration of 600 ng/mL, 300 ng/mL, 150 ng/mL, 5 ng/mL or 2.5 ng/mL. PBS was used as a control. The tube formation was visualized using a spinning disc confocal microscope and the images were stacked together using ImageJ.

[3] = tested on: human endometriotic lesions; assay: mouse xenograft model of endometriosis, gross observation of lesion growth and vascularization; format: in vivo, mice; conditions: 20 mg/kg daily intraperitoneal for 21 days, necropsy one week after treatment, versus saline
Description: Gross observation of endometriotic lesion growth and vascularization in vivo was performed using an animal model. […] The peritoneal cavity of the mice was exposed using surgical tools and the endometriotic lesions were located manually.
A mouse xenograft model was developed using Rag2^−/−/I12rg^−/− double knockout mice on a BalbC background.
Since human estrogen is important for the growth of human endometriotic lesions the mice (n=12) had 60-day release 13-estradiol 17-acetate pellets (15 mg/pellet) (Innovative Research of America, Sarasota, Fla., USA) subcutaneously implanted. The mice were anaesthetized with isofluorane (Pharmaceutical Partners of Canada, Richmond Hill, ON, Canada).
Five days after the implantation of the estrogen 5 pellet, eutopic endometrium obtained from hysterectomy and endometrial biopsies performed at Kingston General Hospital was implanted in the peritoneal cavity of the mice. The obtained endometrium was cut into equal pieces and washed with PBS. The pieces of endometrium were kept in PBS on ice until the surgeries were performed. The mice were anaesthetized in an isofluorane chamber and a small incision was made in their abdomen. Two to three lesions were adhered on the left side of the peritoneal cavity using Vetbond tissue adhesive (3M, St. Paul, Minn., USA) and one or two pieces were dropped freely in the cavity. […]

T1 sequence (O76070 whole entry): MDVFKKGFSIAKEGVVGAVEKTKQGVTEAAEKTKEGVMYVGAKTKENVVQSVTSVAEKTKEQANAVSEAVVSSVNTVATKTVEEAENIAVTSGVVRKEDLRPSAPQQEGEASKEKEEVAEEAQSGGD

| Substance | effect on fertility of the animals (fertility of the animals) | co-precipitation with SNCG (binding to SNCG) (SNCG) | internalization of peptide into endometrial cells (CRL 7566 cells) | proliferation of HUVECs (HUVECs [1]) | morphology of the HUVECs (cell lysis) (HUVECs [2]; 300 ng/mL and 600 ng/mL) | concentration that inhibited tube formation and also changed the morphology of the HUVECs (HUVECs [2]; HUVECs on gel matrix) [ng/mL] | tube formation / branching of HUVECs (HUVECs [2]; various concentrations (600 to 2.5 ng/mL), confocal microscopy) | endometriotic lesion growth [3] | vascularization of the lesions [3] |
| --- | --- | --- | --- | --- | --- | --- | --- | --- | --- |
| Ac-GNSALHVASQHG-NH2 [ST011 peptide, GNSALHVASQHG] | no effect of ST011 peptide on the fertility |  |  |  |  |  |  |  |  |
| GYGRKKRRQRRR (TAT) tagged GNSALHVASQHG (ST011) [TAT-ST011] |  | co-precipitate with SNCG | capable of going inside endometrial cells | dose dependently decreased the proliferation of HUVECs | caused the cells to lyse | ≥ 5 | dose dependent inhibition of tube formation | inhibited growth of lesion | prevented the formation of blood vessels to the lesions |
| GYGRKKRRQRRR ({FITC}-GYGRKKRRQRRR) [TAT alone, control peptide … (TAT CTL, reference compound] |  | not TAT alone is found to co-precipitate with SNCG |  |  |  |  |  |  |  |
